Reference: BigSolDB 2.1

C[C@@H]1O[C@@H]1P(=O)([O-])[O-].[Na+].[Na+]
solubility (mole fraction)
Details | 283.15 K | 288.15 K | 293.15 K | 298.15 K | 303.15 K | 308.15 K | 313.15 K | 318.15 K | 323.15 K
in DMF | 0.000606 | 0.000532 | 0.000481 | 0.000443 | 0.000396 | 0.000358 | 0.000339 | 0.000312 | 0.000291
in acetone | 0.000186 | 0.00016 | 0.000138 | 0.000115 | 9.72e-05 | 8.3e-05 | 7.09e-05 | 6.07e-05 | 5.47e-05
in cyclohexane | 0.000403 | 0.000353 | 0.0003 | 0.000252 | 0.000226 | 0.000196 | 0.000175 | 0.000151 | 0.000128
in ethanol | 0.00109 | 0.000934 | 0.000769 | 0.000643 | 0.000548 | 0.000463 | 0.000383 | 0.000316 | 0.000266
in methanol | 0.0177 | 0.0165 | 0.0152 | 0.0138 | 0.0129 | 0.0121 | 0.0111 | 0.0105 | 0.00984
in n-propanol | 0.000108 | 8.01e-05 | 6.19e-05 | 4.52e-05 | 3.09e-05 | 1.95e-05 | 1.34e-05 | 1.04e-05 | 7.1e-06
